Consider four compounds from ChEMBL document CHEMBL1127333, “Antiviral enantiomeric preference for 5'-noraristeromycin” (J Med Chem, 1994).

Structures are written as SMILES. Converted amounts (≈) assume the structure as drawn.

Assay [1] deals with E6SM. Description: Activity against VV virus induced cytopathicity in E6SM cells. It counts as functional. Conditions: Homo sapiens. Background: Damage to the host cells serves as the signal in cytopathic effect assays.
Assay [2] deals with HEL. Description: Activity against VZV (OKA) induced cytopathicity in HEL cells. The class given is functional. Conditions: Homo sapiens.
For assay [3], the system named is Vero. Kind of assay: Activity against sindbis virus induced cytopathicity in Vero cells. Conditions: Chlorocebus sabaeus. The class given is functional.
The species named for assay [4] is Homo sapiens. Description: Inhibitory concentration on human T-lymphocyte CEM/0 cells. It counts as functional, cell-based. To be noted: CCRF-CEM.
For assay [5], the system named is MDCK. Description: cells. To be noted: Canis lupus familiaris.
In assay [6] the test system is CCRF-CEM. Kind of assay: Activity against HIV-1 induced cytopathicity in CEM cells. The class given is functional. Conditions: Homo sapiens.
In assay [7] the test system is HeLa. Kind of assay: Activity against parainfluenza-3 virus induced cytopathicity in HeLa cells. Conditions: Homo sapiens. The class given is functional.
Assay [8] has as its system Vero. Kind of assay: cells. Conditions: Chlorocebus sabaeus.
Assay [9] has as its system Respiratory syncytial virus. Kind of assay: Activity against RSV (strain Long) virus induced cytopathicity in HeLa cells. It counts as functional. To be noted: human respiratory syncytial virus.
In assay [10] the test system is E6SM. Kind of assay: Activity against HSV-2(G) virus induced cytopathicity in E6SM cells. The class given is functional. Conditions: Homo sapiens.
The subject of assay [11] is MDCK. Kind of assay: cells. To be noted: Canis lupus familiaris. The source holds these as a separate data set.
For assay [12], the system named is HEL. Description: Activity against CMV (AD-169) induced cytopathicity in HEL cells. The class given is functional. Conditions: Homo sapiens.
Assay [13] concerns E6SM. Description: Activity against HSV-1(KOS) virus induced cytopathicity in E6SM cells. The class given is functional. Conditions: Homo sapiens.
The species entered for assay [14] is Homo sapiens. Kind of assay: Inhibitory concentration on human T-lymphocyte Molt4 (clone 8) cells. It counts as functional, cell-based. To be noted: MOLT-4.
Assay [15] concerns HEL. Description: Activity against CMV (Davis) induced cytopathicity in HEL cells. The class given is functional. To be noted: Homo sapiens.
Assay [16] relates to HEL. Description: Activity against VZV (YS) induced cytopathicity in HEL cells. The class given is functional. Conditions: Homo sapiens.
Assay [17] concerns CCRF-CEM. Kind of assay: Activity against HIV-2 induced cytopathicity in CEM cells. It counts as functional. Conditions: Homo sapiens.
The subject of assay [18] is HeLa. Kind of assay: Activity against coxsackie B4 virus induced cytopathicity in HeLa cells. The class given is functional. Conditions: Homo sapiens.
Assay [19] has as its system E6SM. Description: Activity against VSV virus induced cytopathicity in E6SM cells. It counts as functional. Conditions: Homo sapiens.
For assay [20], the system named is HeLa. Kind of assay: Activity against VSV virus induced cytopathicity in HeLa cells. Conditions: Homo sapiens. The class given is functional.
For assay [21], the system named is L1210. Description: Inhibitory concentration on murine leukemia L1210/0 cells. The class given is functional, cell-based. To be noted: Mus musculus.
Assay [22] has as its system Vero. Kind of assay: Activity against semliki forest virus induced cytopathicity in Vero cells. The class given is functional. Conditions: Chlorocebus sabaeus.
Assay [23] relates to Vero. Description: Activity against reovirus-1 induced cytopathicity in Vero cells. Conditions: Chlorocebus sabaeus. The class given is functional.
Assay [24] concerns Vero. Kind of assay: cells. To be noted: Chlorocebus sabaeus. This is another data set of the same source.
Assay [25] has as its system HeLa. Description: cells. To be noted: Homo sapiens.
The test system of assay [26] is MDCK. Kind of assay: Activity against influenza A virus induced cytopathicity in MDCK cells. The class given is functional. To be noted: Canis lupus familiaris.
Assay [27] deals with MDCK. Description: Activity against influenza B virus induced cytopathicity in MDCK cells. It counts as functional. Conditions: Canis lupus familiaris.
For assay [28], the species on record is Homo sapiens. Description: Inhibitory concentration on human T-lymphocyte Molt(clone 8) cells. The class given is functional, cell-based.
The target in assay [29] is Adenosylhomocysteinase (Mus musculus, UniProt P50247). Kind of assay: Binding affinity against L929 cells AdoHcy hydrolase activity. The class given is cell-based.
Adenosylhomocysteinase, sequence (P50247 whole entry): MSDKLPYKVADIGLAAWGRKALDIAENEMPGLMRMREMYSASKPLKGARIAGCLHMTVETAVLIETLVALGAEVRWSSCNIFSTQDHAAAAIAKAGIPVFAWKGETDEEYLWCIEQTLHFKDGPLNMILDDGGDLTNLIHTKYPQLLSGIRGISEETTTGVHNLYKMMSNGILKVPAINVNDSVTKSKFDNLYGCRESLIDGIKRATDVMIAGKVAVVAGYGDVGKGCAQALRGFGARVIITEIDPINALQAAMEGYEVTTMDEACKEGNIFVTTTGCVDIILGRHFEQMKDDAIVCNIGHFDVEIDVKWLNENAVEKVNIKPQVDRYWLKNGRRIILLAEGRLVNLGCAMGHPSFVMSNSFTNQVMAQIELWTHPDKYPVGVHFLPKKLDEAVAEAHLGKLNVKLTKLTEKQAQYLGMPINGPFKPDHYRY

Take `Nc1ncnc2c1ncn2[C@H]1C[C@@H](O)[C@H](O)[C@@H]1O`: the MIC50 in assay [1] was 0.7 µg/mL (≈ 2.79 µM); in [2], over 50 µg/mL; in assay [3], over 400 µg/mL; in [5] it was over 200 µg/mL; in assay [6], over 4 µg/mL; in [7], 0.2 µg/mL (≈ 0.796 µM). The MIC50 in assay [8] is 50 µg/mL (≈ 199 µM); in assay [9], over 200 µg/mL; in assay [10], over 400 µg/mL; in assay [11], over 200 µg/mL; in [12], 5 µg/mL (≈ 19.9 µM); in assay [13] it was over 400 µg/mL. Also, the MIC50 is 3 µg/mL (≈ 11.9 µM) in [15]; over 50 µg/mL in assay [16]; over 4 µg/mL in [17]; over 400 µg/mL in assay [18]; 2 µg/mL (≈ 7.96 µM) in assay [19]; 2 µg/mL (≈ 7.96 µM) in assay [20]. Moreover, the MIC50 is over 400 µg/mL in [22], 7 µg/mL (≈ 27.9 µM) in [23], 30 µg/mL (≈ 119 µM) in [24] and over 400 µg/mL in [25]. Also, the values for the IC50 in assay [4], in [14] and in [21] were 3990 nM, 4650 nM and 5700 nM, respectively.

For `Nc1ncnc2c1ncn2[C@@H]1C[C@H](O)[C@@H](O)[C@H]1O` [NORARISTEROMYCIN], the MIC50 was 0.04 µg/mL (≈ 0.159 µM) in assay [1]; over 50 µg/mL in assay [2]; over 400 µg/mL in assay [3]; over 0.16 µg/mL in [6]; 0.07 µg/mL (≈ 0.279 µM) in [7]; over 100 µg/mL in assay [26]. Besides, the MIC50 in [8] is 8 µg/mL (≈ 31.8 µM); in assay [9], over 200 µg/mL; in [10] it was over 400 µg/mL; in assay [12], 0.01 µg/mL (≈ 0.0398 µM); in assay [13], over 400 µg/mL; in [15], 0.03 µg/mL (≈ 0.119 µM). Also, the MIC50 was over 50 µg/mL in assay [16]; over 0.16 µg/mL in assay [17]; over 400 µg/mL in assay [18]; 0.1 µg/mL (≈ 0.398 µM) in assay [19]; 0.2 µg/mL (≈ 0.796 µM) in assay [20]; over 400 µg/mL in [22]. Moreover, the MIC50 is 0.7 µg/mL (≈ 2.79 µM) in [23], 6 µg/mL (≈ 23.9 µM) in [24], over 100 µg/mL in assay [27] and over 400 µg/mL in assay [25]. The IC50 (commonly the concentration at which inhibition is half-maximal) is 420 nM in assay [4], 390 nM in assay [14] and 500 nM in assay [21].

For the compound `Nc1ncnc2c1ncn2C1CC(O)C(O)C1O` (racemic), the IC50 was found to be 680 nM in assay [4], 630 nM in [21] and 580 nM in assay [28]. Also, affinity in assay [29] was put at a Ki of 11.1 nM.

As for `Nc1ncnc2c1ncn2[C@@H]1C=C(CO)[C@@H](O)[C@H]1O` [NEOPLANOCIN A], the MIC50 in [1] is 0.2 µg/mL (≈ 0.76 µM); in assay [2] it was 6 µg/mL (≈ 22.8 µM); in assay [3], over 10 µg/mL; in [5], over 2.8 µg/mL; in [7] it was 0.2 µg/mL (≈ 0.76 µM); in assay [8] it was 0.4 µg/mL (≈ 1.52 µM). In addition, the MIC50 in [9] was over 1.2 µg/mL; in assay [10], over 100 µg/mL; in [11] it was 1.2 µg/mL (≈ 4.56 µM); in [12], 0.2 µg/mL (≈ 0.76 µM); in assay [13], 70 µg/mL (≈ 266 µM); in assay [15], 0.2 µg/mL (≈ 0.76 µM). Also, the MIC50 is 3.5 µg/mL (≈ 13.3 µM) in assay [16]; over 10 µg/mL in assay [18]; 2 µg/mL (≈ 7.6 µM) in [19]; 2 µg/mL (≈ 7.6 µM) in [20]; over 10 µg/mL in assay [22]; 0.7 µg/mL (≈ 2.66 µM) in assay [23]. Further, the values for the MIC50 in [24] and in assay [25] were 0.4 µg/mL (≈ 1.52 µM) and over 10 µg/mL, respectively. In [29], the Ki (commonly the equilibrium dissociation constant of an inhibitor or competing ligand from its target) is 3 nM.
